In patent US20070066616A1, “Inhibitors for extracellular signal-regulated kinase docking domains and uses therefor” (priority 2005, published 2007):

Assays:
ERK2 D316N = target: T1, ERK2 D316N (Mus musculus, UniProt P63085, D316N); assay: Fluorescence titration with ERK2 point mutant D316N (CD domain); assay type: binding; conditions: fluorescence quenching
T1 construct: (His)x6; made in house; host or cells: bacteria (as described for ERK2 in general; not repeated for the mutant)
Description: (§1) Direct binding interactions between ERK2 and the biologically active compounds is determined using fluorescence spectroscopy (47). Experiments measure the changes in the intrinsic ERK2 fluorescence due to the presence of aromatic amino acids, with the indole group of tryptophan being the major fluorophore with absorption and emission maxima around 280 and 340 nanometers (nm), respectively. Fluorescence spectra were recorded with a Luminescence Spectrometer LS50 (Perkin Elmer, Boston, Mass.). For all experiments, ERK2 protein was diluted into 20 mM Tris-HCl, pH 7.5. Titrations were performed by increasing the test compound concentration while maintaining the ERK2 protein concentration at 3 μM.
(§2) Unphosphorylated and phosphorylated ERK2 typically are incubated with […] of the biologically active compounds and the fluorescence intensity is measured. If necessary, higher inhibitor concentrations are used to saturate fluorescence quenching. The excitation wavelength was 295 nm and fluorescence was monitored from 300 to 500 nm. All reported fluorescence intensities are relative values and are not corrected for wavelength variations in detector response. […] Because the test compounds contain aromatic structures, the emission spectra of the active compounds in the absence of ERK2 is be determined. […]

[1] = test system: HT1080 fibrosarcoma cells; assay: Cell proliferation, HT1080 cells; assay type: cell-based, human; conditions: data not shown
Description: (§3) Trypsinized cells were plated on 12 or 24 well plates at low densities (200-400 cells per well) in the absence (DMSO only) or presence of test compounds. In additional experiments, cells were first allowed to adhere to the culture dishes for 16 hours prior to treatment with test compounds. The treated cells received a single dose of the test compounds at the beginning of the experiments. The control and treated cells were grown for 8-14 days to allow the formation of colonies. Cells then were fixed for 10 minutes in 4% paraformaldehyde and stained with 0.2% crystal violet (in 20% methanol) for 1-2 minutes. Following several washes with distilled water, the colonies (containing at least 40 cells) were counted. Each individual experiment was repeated on at least 3 separate occasions.

[2] = test system: ERK-mediated phosphorylation of Elk-1 on S383; assay: ERK-mediated Elk-1 phosphorylation (Ser383), immunoblot in EGF-stimulated HeLa cells; assay type: cell-based, human
Description: Prior to harvesting, cells were pre-incubated with the test compounds for 15-20 minutes and then stimulated with EGF or anisomycin to activate the ERK or p38 MAP kinase pathways, respectively. […] The lysates then were diluted with an equal volume of 2X SDS-sample buffer and the proteins were separated on SDS-PAGE for immunoblot analysis. Immunoblot analysis was done as previously described (41-43).
(§4) Cells were treated with EGF to activate the ERK pathway and phosphorylation of Elk-1 on the ERK site at S383 was detected by immunoblot analysis (FIG. 5C). […] The effects of the test compounds were also tested with Rsk-1, another ERK substrate involved in regulating cell proliferation.

[3] = test system: SUM-159 estrogen-receptor negative breast cancer cell line; assay: Cell proliferation, SUM-159 cells; assay type: cell-based, human
Description: (§5) HeLa, A549, or SUM-159 cells were plated at a low density of ˜200-400 cells per well in the absence or presence of putative ERK docking domain inhibitors. Cell colonies were stained with crystal violet and counted after 6-10 days. In FIG. 7A cells were grown on 10 cm plates in the absence (−) or presence of 100 mM of compound 67, 36, 68, 81, or 76. Colony formation dose response in the presence of the indicated concentrations of compound 76 or 81 for Hela cells (100 mM) (FIG. 7B), A549 cells (50 mM) (FIG. 7C), or SUM-159 cells (50 mM) (FIG. 7D).
as §3

[4] = test system: A549 lung carcinoma cells; assay: Colony formation assay, A549 cells; assay type: cell-based, human; conditions: colony formation dose response (FIG. 7C)
Description: as §5, §3

ERK2 T157A = target: T2, ERK2 T157A (Mus musculus, UniProt P63085, T157A); assay: Fluorescence titration with ERK2 point mutant T157A (ED domain); assay type: binding; conditions: fluorescence quenching
T2 construct: (His)x6; made in house; host or cells: bacteria (as described for ERK2 in general; not repeated for the mutant)
Description: as §1, §2

[5] = test system: ERK-mediated phosphorylation of Rsk-1 on Thr573; assay: ERK-mediated Rsk-1 phosphorylation (Thr573), immunoblot and densitometry in EGF-stimulated HeLa cells; assay type: cell-based, human; conditions: immunoblot
Description: Prior to harvesting, cells were pre-incubated with the test compounds for 15-20 minutes and then stimulated with EGF or anisomycin to activate the ERK or p38 MAP kinase pathways, respectively. Control and treated cells were washed twice with cold phosphate buffered saline (PBS, pH 7.2; Invitrogen) and proteins were collected following cell lysis with 300 μl of cold tissue lysis buffer (20 mM Tris, pH 7.4, 137 mM NaCl, 2 mM EDTA, 1% Triton X-100, 0.1% SDS, 25 mM β-glycerophosphate, 2 mM sodium pyrophosphate, 10% glycerol, 1 mM sodium orthovanadate, 1 mM phenylmethylsulfonyl fluoride (PMSF), 1 mM benzamidine), allowed to incubate on ice for about 10 minutes and then centrifuged at 20,000 (X g) to clarify the lysates of insoluble material. The lysates then were diluted with an equal volume of 2X SDS-sample buffer and the proteins were separated on SDS-PAGE for immunoblot analysis. Immunoblot analysis was done as previously described (41-43).
All compounds were subjected to assays of ERK specific phosphorylation of Rsk-1 and/or Elk-1 as examined by immunoblot analysis using phosphorylation specific antibodies. In FIG. 5A HeLa cells were cultured in 24 well plates and pretreated for 20-30 minutes with […] of the selected test compounds. The cells were stimulated with epidermal growth factor (EGF, 50 ng/ml) for 5 minutes to activate the ERK pathway. Cell lysates were collected and immunoblotted for ERK-mediated phosphorylation of Rsk-1 on Thr573. As shown, EGF treatment alone caused a robust increase in Thr573 phosphorylation on Rsk-1 in the absence of test compounds. The presence of test compounds had inhibitory effects on ERK-mediated Rsk-1 phosphorylation.
as §4, with “Compounds 86-98 were first tested for inhibition of ERK mediated phosphorylation of the transcription factor Elk-1, which is an important regulator of cell proliferation. Cells” for “Cells”

T1 sequence (P63085 whole entry D316N, the tested form may be a part): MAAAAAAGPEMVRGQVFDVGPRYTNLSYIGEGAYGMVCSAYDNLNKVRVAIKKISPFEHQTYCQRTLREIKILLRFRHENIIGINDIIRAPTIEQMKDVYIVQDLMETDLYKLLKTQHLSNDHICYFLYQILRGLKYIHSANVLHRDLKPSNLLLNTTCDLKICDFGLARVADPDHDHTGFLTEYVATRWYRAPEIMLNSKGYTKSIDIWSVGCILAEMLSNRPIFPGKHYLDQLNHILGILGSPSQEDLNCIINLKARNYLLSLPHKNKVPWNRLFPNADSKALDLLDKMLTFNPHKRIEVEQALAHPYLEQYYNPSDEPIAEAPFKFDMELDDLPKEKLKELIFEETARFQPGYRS
T2 sequence (P63085 whole entry T157A, the tested form may be a part): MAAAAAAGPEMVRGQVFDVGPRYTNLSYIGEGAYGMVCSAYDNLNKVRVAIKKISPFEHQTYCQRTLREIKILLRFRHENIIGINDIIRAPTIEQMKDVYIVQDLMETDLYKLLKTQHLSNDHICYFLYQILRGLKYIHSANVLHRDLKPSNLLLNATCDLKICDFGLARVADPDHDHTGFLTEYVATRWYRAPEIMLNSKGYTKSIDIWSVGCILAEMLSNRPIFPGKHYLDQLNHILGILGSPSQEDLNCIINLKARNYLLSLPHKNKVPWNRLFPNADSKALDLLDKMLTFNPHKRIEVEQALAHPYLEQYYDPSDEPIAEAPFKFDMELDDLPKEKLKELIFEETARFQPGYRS

reduction in binding affinity compared to wild type ERK2 (ERK2 D316N): approximately 5 fold
IC50 [4]: ~25 µM
reduction in binding affinity compared to wild type ERK2 (ERK2 T157A): approximately 5 fold
Compound: CCOc1ccc(C=C2SC(=O)N(CCN)C2=O)cc1 [Compound 76]
inhibition of cell proliferation in HT1080 (in words) [1]: inhibition of cell proliferation
effect on ERK-mediated Elk-1 phosphorylation (in words) [2]: inhibited
inhibition of cell proliferation in SUM-159 (in words) [3]: inhibition of cell proliferation
effect on ERK-mediated Rsk-1 phosphorylation (in words) [5]: highest inhibition
